Reference: US12594276B2, “Inhibitors of human immunodeficiency virus replication” (ViiV Healthcare UK (No.5) Limited, priority 2024, dated 2026)
Where two headings read alike, the source gives them in different places.

How the values were obtained:
[1] = Compound cytotoxicity, XTT-based colorimetric assay; format: cell-based; settings: human
In short: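 Uninfected MT2 cells, antiviral-assay protocol without virus; XTT colorimetric readout day 4; CC50 reported.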

[2] = system: recombinant NL4-3 virus (nef section replaced with Renilla luciferase gene) in MT-2 cells; assay: HIV cell culture assay (antiviral activity, luciferase readout); format: cell-based; settings: Renilla, NL43, MT-2 cells infected for 4-5 days with recombinant NL4-3 Renilla luciferase virus
In short: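 Antiviral EC50 derived from luciferase signal using the exponential median effect equation. Infection of MT-2 cells ran 4-5 days alongside serial dilutions of compound, with virus generated by proviral clone transfection of 293T cells.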

[3] = uninfected MT2 cells, day 4, XTT, read-out: CC50

| Compound | CC50 at 4 days [1, 3] [nM] | EC50 [2] [nM] | CC50 at 4 days [1] [nM] |
| --- | --- | --- | --- |
| COCCCn1nc(NS(C)(=O)=O)c2c(Cl)ccc(-n3c([C@H](Cc4cc(F)cc(F)c4)NC(=O)Cn4nc(C(F)F)c5c4C(F)(F)[C@@H]4C[C@H]54)nc4nc(C5CCC(F)(F)CC5)cc(NCCN5CC(F)(F)C5)c4c3=O)c21 (atropisomer, axis not shown; (P)) [Example 517, N-[(1S)-1-[(3P)-3-[4-chloro-3-methanesulfonamido-1-(3-methoxypropyl)-1H-indazol-7-yl]-5-{[2-(3,3-difluoroazetidin-1-yl)ethyl]amino}-7-(4,4-difluorocyclohexyl)-4-oxo-3H,4H-pyrido[2,3-d]pyrimidin-2-yl]-2-(3,5-difluorophenyl)ethyl]-2-[(2S,4R)-9-(difluoromethyl)-5,5-difluoro-7,8-diazatricyclo[4.3.0.0^2,^4]nona-1(6),8-dien-7-yl]acetamide] | > 20 | 0.009 | – |
| COCCCn1nc(NS(C)(=O)=O)c2c(Cl)ccc(-n3c([C@H](Cc4cc(F)cc(F)c4)NC(=O)Cn4nc(C(F)F)c5c4C(F)(F)[C@@H]4C[C@H]54)nc4nc(C5CCC(F)(F)CC5)cc(NCCN(C)C)c4c3=O)c21 (atropisomer, axis not shown; (P)) [Example 522, N-[(1S)-1-[(3P)-3-[4-chloro-3-methanesulfonamido-1-(3-methoxypropyl)-1H-indazol-7-yl]-7-(4,4-difluorocyclohexyl)-5-{[2-(dimethylamino)ethyl]amino}-4-oxo-3H,4H-pyrido[2,3-d]pyrimidin-2-yl]-2-(3,5-difluorophenyl)ethyl]-2-[(2S,4R)-9-(difluoromethyl)-5,5-difluoro-7,8-diazatricyclo[4.3.0.0^2,^4]nona-1(6),8-dien-7-yl]acetamide] | > 20 | 0.014 | – |
| CS(=O)(=O)Nc1nn(CCN2CCOC3(CC3)C2)c2c(-n3c([C@H](Cc4cc(F)cc(F)c4)NC(=O)Cn4nc(C(F)F)c5c4C(F)(F)[C@@H]4C[C@H]54)nc4nc(C5CCC(F)(F)CC5)ccc4c3=O)ccc(Cl)c12 (atropisomer, axis not shown; (P)) [Example 176, N-[(1S)-1-[(3P)-3-[4-chloro-3-methanesulfonamido-1-(2-{4-oxa-7-azaspiro[2.5]octan-7-yl}ethyl)-1H-indazol-7-yl]-7-(4,4-difluorocyclohexyl)-4-oxo-3H,4H-pyrido[2,3-d]pyrimidin-2-yl]-2-(3,5-difluorophenyl)ethyl]-2-[(2S,4R)-9-(difluoromethyl)-5,5-difluoro-7,8-diazatricyclo[4.3.0.0^2,^4]nona-1(6),8-dien-7-yl]acetamide] | > 50 | 0.018 | – |
| COCCCn1nc(NS(C)(=O)=O)c2c(Cl)ccc(-n3c([C@H](Cc4cc(F)cc(F)c4)NC(=O)Cn4nc(C5CC5)c5c4C[C@@H]4C[C@H]54)nc4nc(C5CCC(F)(F)CC5)cc(C5CC5)c4c3=O)c21 (atropisomer, axis not shown; (P)) [Example 376, N-[(1S)-1-[(3P)-3-[4-chloro-3-methanesulfonamido-1-(3-methoxypropyl)-1H-indazol-7-yl]-5-cyclopropyl-7-(4,4-difluorocyclohexyl)-4-oxo-3H,4H-pyrido[2,3-d]pyrimidin-2-yl]-2-(3,5-difluorophenyl)ethyl]-2-[(2S,4S)-9-cyclopropyl-7,8-diazatricyclo[4.3.0.0^2,^4]nona-1(6),8-dien-7-yl]acetamide] | > 20 | 0.016 | – |
| COCCCn1nc(NS(C)(=O)=O)c2c(Cl)ccc(-n3c([C@H](Cc4cc(F)cc(F)c4)NC(=O)Cn4nc(C5CC5)c5c4C[C@@H]4C[C@H]54)nc4nc(C5CCC(F)(F)CC5)cc(C)c4c3=O)c21 (atropisomer, axis not shown; (P)) [Example 87, N-[(1S)-1-[(3P)-3-[4-chloro-3-methanesulfonamido-1-(3-methoxypropyl)-1H-indazol-7-yl]-7-(4,4-difluorocyclohexyl)-5-methyl-4-oxo-3H,4H-pyrido[2,3-d]pyrimidin-2-yl]-2-(3,5-difluorophenyl)ethyl]-2-[(2S,4S)-9-cyclopropyl-7,8-diazatricyclo[4.3.0.0^2,^4]nona-1(6),8-dien-7-yl]acetamide] | > 50 | 0.019 | – |
| C[C@H](CN1C[C@H](F)C[C@H](F)C1)n1nc(NS(C)(=O)=O)c2c(Cl)ccc(-n3c([C@H](Cc4cc(F)cc(F)c4)NC(=O)Cn4nc(C(F)F)c5c4C(F)(F)[C@@H]4C[C@H]54)nc4nc(C5CCC(F)(F)CC5)cc(C5CC5)c4c3=O)c21 (atropisomer, axis not shown; (P)) [Example 716, N-[(1S)-1-[(3P)-3-{4-chloro-1-[(2R)-1-[(3R,5S)-3,5-difluoropiperidin-1-yl]propan-2-yl]-3-methanesulfonamido-1H-indazol-7-yl}-5-cyclopropyl-7-(4,4-difluorocyclohexyl)-4-oxo-3H,4H-pyrido[2,3-d]pyrimidin-2-yl]-2-(3,5-difluorophenyl)ethyl]-2-[(2S,4R)-9-(difluoromethyl)-5,5-difluoro-7,8-diazatricyclo[4.3.0.0^2,^4]nona-1(6),8-dien-7-yl]acetamide] | > 20 | 0.035 | – |
| Cc1cc(C2CCC(F)(F)CC2)nc2nc([C@H](Cc3cc(F)cc(F)c3)NC(=O)Cn3nc(C(F)F)c4c3C(F)(F)[C@@H]3C[C@H]43)n(-c3ccc(Cl)c4c(NS(C)(=O)=O)nn(CCN5[C@@H]6CC[C@H]5CC(F)(F)C6)c34)c(=O)c12 (atropisomer, axis not shown; (P)) [Example 246, N-[(1S)-1-[(3P)-3-(4-chloro-1-{2-[(1R,5S)-3,3-difluoro-8-azabicyclo[3.2.1]octan-8-yl]ethyl}-3-methanesulfonamido-1H-indazol-7-yl)-7-(4,4-difluorocyclohexyl)-5-methyl-4-oxo-3H,4H-pyrido[2,3-d]pyrimidin-2-yl]-2-(3,5-difluorophenyl)ethyl]-2-[(2S,4R)-9-(difluoromethyl)-5,5-difluoro-7,8-diazatricyclo[4.3.0.0^2,^4]nona-1(6),8-dien-7-yl]acetamide] | – | 0.028 | > 50 |
| Cc1cc(C2(C)CCC(F)(F)CC2)nc2nc([C@H](Cc3cc(F)cc(F)c3)NC(=O)Cn3nc(C(F)F)c4c3C(F)(F)[C@@H]3C[C@H]43)n(-c3ccc(Cl)c4c(NS(C)(=O)=O)nn(CCN5CC(C)(C)OC(C)(C)C5)c34)c(=O)c12 (atropisomer, axis not shown; (P)) [Example 507, N-[(1S)-1-[(3P)-3-{4-chloro-3-methanesulfonamido-1-[2-(2,2,6,6-tetramethylmorpholin-4-yl)ethyl]-1H-indazol-7-yl}-7-(4,4-difluoro-1-methylcyclohexyl)-5-methyl-4-oxo-3H,4H-pyrido[2,3-d]pyrimidin-2-yl]-2-(3,5-difluorophenyl)ethyl]-2-[(2S,4R)-9-(difluoromethyl)-5,5-difluoro-7,8-diazatricyclo[4.3.0.0^2,^4]nona-1(6),8-dien-7-yl]acetamide] | > 20 | 0.021 | – |
| Cc1cc(C2CCC(F)(F)CC2)nc2nc([C@H](Cc3cc(F)cc(F)c3)NC(=O)Cn3nc(C(F)F)c4c3C(F)(F)[C@@H]3C[C@H]43)n(-c3ccc(Cl)c4c(NS(C)(=O)=O)nn(CCN5CC(C(F)F)C5)c34)c(=O)c12 (atropisomer, axis not shown; (P)) [Example 268, N-[(1S)-1-[(3P)-3-(4-chloro-1-{2-[3-(difluoromethyl)azetidin-1-yl]ethyl}-3-methanesulfonamido-1H-indazol-7-yl)-7-(4,4-difluorocyclohexyl)-5-methyl-4-oxo-3H,4H-pyrido[2,3-d]pyrimidin-2-yl]-2-(3,5-difluorophenyl)ethyl]-2-[(2S,4R)-9-(difluoromethyl)-5,5-difluoro-7,8-diazatricyclo[4.3.0.0^2,^4]nona-1(6),8-dien-7-yl]acetamide] | > 50 | 0.015 | – |
| COCCCn1nc(NS(C)(=O)=O)c2c(Cl)ccc(-n3c([C@H](Cc4cc(F)cc(F)c4)NC(=O)Cn4nc(C(F)F)c5c4C(F)(F)[C@@H]4C[C@H]54)nc4nc(C5CCC(F)(F)CC5)cc(NCCC5CCCCC5)c4c3=O)c21 (atropisomer, axis not shown; (P)) [Example 549, N-[(1S)-1-[(3P)-3-[4-chloro-3-methanesulfonamido-1-(3-methoxypropyl)-1H-indazol-7-yl]-5-[(2-cyclohexylethyl)amino]-7-(4,4-difluorocyclohexyl)-4-oxo-3H,4H-pyrido[2,3-d]pyrimidin-2-yl]-2-(3,5-difluorophenyl)ethyl]-2-[(2S,4R)-9-(difluoromethyl)-5,5-difluoro-7,8-diazatricyclo[4.3.0.0^2,^4]nona-1(6),8-dien-7-yl]acetamide] | > 20 | 0.258 | – |
| COCCN(CCOC)C(=O)Cn1nc(NS(C)(=O)=O)c2c(Cl)ccc(-n3c([C@H](Cc4cc(F)cc(F)c4)NC(=O)Cn4nc(C(F)F)c5c4C(F)(F)[C@@H]4C[C@H]54)nc4nc(C5CCC(F)(F)CC5)cc(C)c4c3=O)c21 (atropisomer, axis not shown; (P)) [Example 401, 2-[(6P)-4-chloro-7-[7-(4,4-difluorocyclohexyl)-2-[(1S)-1-{2-[(2S,4R)-9-(difluoromethyl)-5,5-difluoro-7,8-diazatricyclo[4.3.0.02, 4]nona-1(6),8-dien-7-yl]acetamido}-2-(3,5-difluorophenyl)ethyl]-5-methyl-4-oxo-3H,4H-pyrido[2,3-d]pyrimidin-3-yl]-3-methanesulfonamido-1H-indazol-1-yl]-N,N-bis(2-methoxyethyl)acetamide] | > 20 | 0.012 | – |
